The results in this text go back to patent US7022736B2, “Enzyme inhibitors” (Istituto Di Ricerche Di Biologia Molecolare P Angeletti SpA, priority 1998, dated 2006).

In the first assay the target is T1, HCV RdRp (NS5B RNA-dependent RNA polymerase) (Hepatitis C virus genotype 1b, UniProt P26663).
T1 construct: The HCV NS5B protein is the viral RdRp; made in house; host or cells: insect cells infected with recombinant baculovirus
T1 sequence (P26663 2420-3010): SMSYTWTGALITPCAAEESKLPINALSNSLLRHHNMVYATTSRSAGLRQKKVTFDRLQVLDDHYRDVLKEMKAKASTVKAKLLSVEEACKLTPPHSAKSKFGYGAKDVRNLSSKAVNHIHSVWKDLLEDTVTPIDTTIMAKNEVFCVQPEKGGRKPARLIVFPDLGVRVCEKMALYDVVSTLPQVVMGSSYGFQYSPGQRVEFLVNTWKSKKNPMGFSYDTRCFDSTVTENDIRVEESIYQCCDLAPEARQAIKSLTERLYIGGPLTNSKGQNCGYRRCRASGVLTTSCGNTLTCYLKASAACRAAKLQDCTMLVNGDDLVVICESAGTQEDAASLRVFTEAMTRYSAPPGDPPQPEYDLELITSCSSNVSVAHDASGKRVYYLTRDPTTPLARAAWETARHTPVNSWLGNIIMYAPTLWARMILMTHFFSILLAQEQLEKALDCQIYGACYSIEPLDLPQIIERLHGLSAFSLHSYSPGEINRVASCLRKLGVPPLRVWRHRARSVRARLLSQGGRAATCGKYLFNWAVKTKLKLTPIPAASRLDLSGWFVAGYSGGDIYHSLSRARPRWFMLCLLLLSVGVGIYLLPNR
Put plainly: Inhibition of hepatitis C virus RdRp (poly(A)/oligo(U), [3H]UTP incorporation). It counts as biochemical. The conditions noted are these: Tables I-VIII; 20 nM NS5B, 1 hour at 22° C.; read-out: IC 50 (μM), HCV-polymerase. The protocol:
In initial tests, the compounds were tested to see if they were effective as inhibitors of the RNA-dependent RNA polymerase (RdRp) of hepatitis C virus (HCV). The HCV NS5B protein is the viral RdRp; compounds capable of interfering with the activity of this enzyme are thus expected to block viral replication.
Test for Inhibition of Hepatatis C Virus RdRp
WO96/37619 describes the production of recombinant HCV RdRp from insect cells infected with recombinant baculovirus encoding the enzyme. […] The reference describes a polymerisation assay using poly (A) as a template and oligo (U) as a primer. Incorporation of tritiated UTP is quantified by measuring acid-insoluble radioactivity. The present inventors have employed this assay to screen the various compounds described above as inhibitors of HCV RdRp and other virally encoded polymerases.
Incorporation of radioactive UMP was measured as follows. The standard reaction (100 μl) was carried out in a buffer containing 20 mM tris/HCl pH 7.5, 5 mM MgCl2, 1 mM DTT, 50 mM NaCl, 1 mM EDTA, 2 OU Rnasin (Promega), 0.05% Triton X-100, 1 μCi[^3H] UTP (40 Ci/mmol,NEN), 10 μM UTP and 10 μg/ml poly (A). Oligo (U)12 (1 μg/ml, Genset) was added as a primer. The final NSSB enzyme concentration was 20 nM. After 1 hour incubation at 22° C. the reaction was stopped by adding 100 μl of 20% TCA and applying samples to DE81 filters. The filters were washed thoroughly with 5% TCA containing 1M Na2HPO4/NaH2PO4, pH 7.0, rinsed with water and then ethanol, air dried, and the filter-bound radioactivity was measured in the scintillation counter. By carrying out the reaction in the presence of various concentrations of each of the compounds set out above it was possible to determine IC50 values for each compound with the formula: % residual activity=100/(1+[I]/IC50)^s where [I] is the inhibitor concentration and “s” is the slope of the inhibition curve. Test for Inhibition of Hepatitis B Virus Polymerase
With `CCCSc1ccccc1C(=O)C=C(O)C(=O)O` [Example 34], the IC50 came out at 9.6 µM.
On to `O=C(O)C(O)=CC(=O)c1ccsc1Cc1cccc(Cl)c1` [Example 232], for which the IC50 came to 11.8 µM.
Still for that read-out and setting: then `O=C(O)C(O)=CC(=O)c1cccc(Oc2ccccc2)c1` [Example 44], with 18.5 µM; and `Cc1ccc(S(=O)(=O)Nc2cccc(C(=O)C=C(O)C(=O)O)c2)cc1Cl` [Example 137], with 0.9 µM; and `O=C(O)C(O)=CC(=O)c1sccc1Cc1cccc(Cl)c1` [Example 212], with 7.5 µM.
The same measure, in the same setting: for `N#Cc1cccc(Cl)c1COc1cc(O)cc(C(=O)C=C(O)C(=O)O)c1` [Example 160] the value was 0.1 µM; for `O=C(O)C(O)=CC(=O)C1(c2ccccc2)CCN(C(=O)N(c2ccccc2)c2ccccc2)CC1` [Example 249], 60 µM; for `O=C(O)C(O)=CC(=O)c1ccsc1Cc1cccs1` [Example 227], 15 µM.
Same read-out and setting: for `O=C(O)C(O)=CC(=O)c1cccc(NS(=O)(=O)c2c(Cl)cc(Cl)cc2Cl)c1` [Example 148] the value was 0.26 µM; for `O=C(O)C(O)=CC(=O)c1cccn1Cc1cccc(F)c1` [Example 181], 30 µM.
`CC(C)(C)C(=O)C=C(O)C(=O)O` [Example 241]: the IC50 turned out to be 37 µM.
The same measure, in the same setting: then `N#Cc1cccc(C(=O)Nc2cccc(C(=O)C=C(O)C(=O)O)c2)c1` [Example 70], with 9.2 µM; and `O=C(O)C(O)=CC(=O)c1cccc(NC(=O)c2ccccc2Cl)c1` [Example 85], with 13 µM.
`N#Cc1ccc(COc2ccccc2C(=O)C=C(O)C(=O)O)cc1` [Example 25]: the IC50 amounted to 28 µM.
Turning to `O=C(O)C(O)=CC(=O)c1cccc(C2=CCCc3ccccc32)c1` [Example 47], the IC50 turned out to be 20.7 µM.
Same read-out and setting: for `O=C(O)C(O)=CC(=O)c1cccn1Cc1ccccc1F` [Example 182] the value was 30 µM; for `O=C(O)C(O)=CC(=O)c1cccc(NS(=O)(=O)c2cc(Cl)c(Oc3ccc([N+](=O)[O-])cc3Cl)c(Cl)c2)c1` [Example 135], 21 µM; for `Cc1ccccc1COc1cccc(C(=O)C=C(O)C(=O)O)c1` [Example 91], 6.2 µM.
Still for that read-out and setting: for `O=C(C=C(O)C(=O)O)CC1CCCCC1` [Example 257] the value was 50 µM; for `CCOC(=O)c1ccccc1S(=O)(=O)Nc1cccc(C(=O)C=C(O)C(=O)O)c1` [Example 128], 24 µM; for `O=C(O)C(O)=CC(=O)c1csc2ccccc12` [Example 236], 26 µM.
In the case of `O=C(O)C(O)=CC(=O)c1ccsc1Cc1ccccc1F` [Example 230], the IC50 was determined as 8.6 µM.
For the molecule `N#Cc1cccc(COc2cccc(C(=O)C=C(O)C(=O)O)c2)c1` [Example 28], the IC50 was 6.2 µM.
Same read-out and setting: for `O=C(O)C(O)=CC(=O)c1cccc(OCc2cccc3ccccc23)c1` [Example 132] the value was 0.67 µM; for `O=C(O)C(O)=CC(=O)c1cccc(OCc2cccc(Oc3ccccc3)c2)c1` [Example 104], 50 µM.
The same measure, in the same setting: then `O=C(Nc1cccc(C(=O)C=C(O)C(=O)O)c1)OCc1ccccc1` [Example 81], with 1.4 µM; and `O=C(O)C(O)=CC(=O)c1ccc(N2CCc3ccccc3C2)s1` [Example 215], with 15.3 µM.
For `O=C(O)C(O)=CC(=O)c1cccc(OCc2ccccc2-c2ccccc2)c1` [Example 97], the IC50 came to 2.8 µM.
On to `O=C(O)C(O)=CC(=O)c1cccc(OCc2ccc(F)cc2Cl)c1` [Example 87], for which the IC50 is 2.3 µM.
The same measure, in the same setting: then `O=C(O)C(O)=CC(=O)c1cccn1Cc1ccc(F)cc1` [Example 180], with 93 µM; and `O=C(O)C(O)=CC(=O)c1cccn1Cc1ccccc1` [Example 176], with 29 µM; and `O=C(O)C(O)=CC(=O)c1cccc(OCc2ccsc2C(=O)O)c1` [Example 84], with 0.95 µM.
With `O=C(O)COc1cccc(C(=O)C=C(O)C(=O)O)c1` [Example 14], the IC50 came out at 26 µM.
Still for that read-out and setting: for `O=C(O)C(O)=CC(=O)C(c1ccccc1)c1ccccc1` [Example 244] the value was 77 µM; for `O=C(O)C(O)=CC(=O)c1cccc(NS(=O)(=O)c2ccc(F)c(Cl)c2)c1` [Example 143], 0.45 µM; for `CCC(C)C(=O)/C=C(\O)C(=O)O` (stereo not shown) [Example 240], 18 µM.
In the case of `O=C(O)C(O)=CC(=O)c1cccc(Cc2cc(Br)cc(Br)c2)c1` [Example 49], the IC50 was determined as 32 µM.
In the case of `O=C(O)C(O)=CC(=O)c1cccc(OCc2c(Cl)cccc2Cl)c1` [Example 139], the IC50 came out at 1.4 µM.
As for `O=C(O)C(O)=CC(=O)c1ccccc1SC1CCCCC1` [Example 33], the IC50 is 18.2 µM.
As to `O=C(O)C(O)=CC(=O)c1cccc(N(Cc2ccccc2)Cc2ccccc2)c1` [Example 41], the IC50 stood at 28.9 µM.
On to `O=C(O)C(O)=CC(=O)c1cccn1CC1CCCC1` [Example 175], for which the IC50 amounted to 25 µM.
The same measure, in the same setting: then `O=C(O)C(O)=CC(=O)c1cccc(COc2ccccc2)c1` [Example 110], with 30 µM; and `N#Cc1c(Cl)cccc1COc1cccc(C(=O)C=C(O)C(=O)O)c1` [Example 109], with 0.17 µM.
Still for that read-out and setting: then `O=C(O)C(O)=CC(=O)c1cccc(NS(=O)(=O)c2ccc(Cl)c([N+](=O)[O-])c2)c1` [Example 141], with 0.56 µM.
For `N#CCCCCn1cccc1C(=O)C=C(O)C(=O)O` [Example 174], the IC50 was determined as 13.4 µM.
Still for that read-out and setting: for `CCCCS(=O)(=O)N1CCCC(Cc2ccc(Cl)cc2)(C(=O)C=C(O)C(=O)O)C1` (stereo not shown) [Example 245] the value was 81.4 µM.
As to `N#CCCCOc1ccc(N)cc1C(=O)C=C(O)C(=O)O` [Example 63], the IC50 came to 1.7 µM.
For `CCc1ccc(C(=O)C=C(O)C(=O)O)cc1` [Example 164], the IC50 worked out at 47 µM.
With `CC1(C(=O)C=C(O)C(=O)O)CC1` [Example 239], the IC50 is 9.4 µM.
Take `O=C(O)C(O)=CC(=O)c1cccc(NS(=O)(=O)c2cc(Cl)sc2Cl)c1` [Example 95]: the IC50 worked out at 0.48 µM.
The same measure, in the same setting: for `O=C(O)C(O)=CC(=O)c1cc2c(s1)CCCC2c1ccccc1` (stereo not shown) [Example 214] the value was 17 µM; for `O=C(O)C(O)=CC(=O)c1cccc(NS(=O)(=O)c2ccc(F)cc2Cl)c1` [Example 138], 1.1 µM.
On the same count and under the same terms, for `O=C(O)C(O)=CC(=O)c1cccc(NS(=O)(=O)CCCCl)c1` [Example 134] the value was 23 µM; for `N#CCCCOc1ccc(/C=C/c2ccccc2)cc1C(=O)C=C(O)C(=O)O` [Example 57], 2.1 µM.
Same read-out and setting: for `O=C(O)C(O)=CC(=O)c1cccc(Cn2nc3ccccc3n2)c1` [Example 153] the value was 19 µM; for `O=C(O)/C(O)=C/C(=O)C1(Cc2ccc(Cl)cc2)CCCN(Cc2ccccc2)C1` (stereo not shown) [Example 247], 45 µM; for `N#CCCCOc1cccc(C(=O)C=C(O)C(=O)O)c1` [Example 13], 2.6 µM.
Regarding `N#Cc1ccc(C(=O)Nc2cccc(C(=O)C=C(O)C(=O)O)c2)cc1` [Example 68], the IC50 was 30 µM.
On the same count and under the same terms, then `N#Cc1ccccc1Cn1cccc1C(=O)C=C(O)C(=O)O` [Example 184], with 6.7 µM.
The same measure, in the same setting: then `O=C(O)C(O)=CC(=O)c1cccc(S(=O)(=O)Nc2ccccc2)c1` [Example 144], with 14 µM; and `O=C(O)C(O)=CC(=O)c1cccc(Cc2ccc(Cl)cc2)c1` [Example 45], with 12.9 µM.
On to `O=C(O)C(O)=CC(=O)c1cccc(NCc2cccc(C(=O)O)c2)c1` [Example 79], for which the IC50 worked out at 6 µM.
The same measure, in the same setting: for `O=C(O)C(O)=CC(=O)c1ccc(N2CCCCC2)s1` [Example 200] the value was 8.2 µM; for `N#Cc1ccccc1COc1ccccc1C(=O)C=C(O)C(=O)O` [Example 65], 45 µM.
On to `COc1ccccc1C(=O)C=C(O)C(=O)O` [Example 17], for which the IC50 amounted to 11.6 µM.
Turning to `CCCCCCOc1cccc(C(=O)C=C(O)C(=O)O)c1` [Example 30], the IC50 was found to be 15 µM.
The same measure, in the same setting: then `O=C(O)C(O)=CC(=O)c1cccc(OCC2CCCCC2)c1` [Example 10], with 20 µM.
For the molecule `N#Cc1ccccc1COc1cccc(C(=O)C=C(O)C(=O)O)c1` [Example 64], the IC50 came to 0.23 µM.
As to `O=C(O)C(O)=CC(=O)C1CCCCC1` [Example 256], the IC50 amounted to 25 µM.
The same measure, in the same setting: then `CC1=CCC(C(=O)C=C(O)C(=O)O)CC1` (stereo not shown) [Example 242], with 12.8 µM; and `O=C(O)C(O)=CC(=O)c1cccc(NS(=O)(=O)c2ccc(Cl)cc2Cl)c1` [Example 151], with 0.5 µM.

Still in this assay, the particulars now being: Tables IXa-IXc; unit inferred; read-out: HCV (IC50).
With `N#Cc1cccc(Cl)c1COc1cc(O)cc(C(=O)C=C(O)C(=O)O)c1` [Example 160], the IC50 is 0.1 µM.
The same measure, in the same setting: for `O=C(O)C(O)=CC(=O)c1cccc(OCc2ccsc2C(=O)O)c1` [Example 84] the value was 0.95 µM; for `O=C(O)C(O)=CC(=O)c1cccc(Cc2cc(Br)cc(Br)c2)c1` [Example 49], 32 µM; for `N#Cc1c(Cl)cccc1COc1cccc(C(=O)C=C(O)C(=O)O)c1` [Example 109], 0.17 µM.
The same measure, in the same setting: then `N#Cc1ccccc1COc1cccc(C(=O)C=C(O)C(=O)O)c1` [Example 64], with 0.23 µM.
